Data as given in patent US11661404B2, “Prodrug compounds activated by AKR1C3 and their use for treating hyperproliferative disorders” (priority 2018, dated 2023).
Like-named read-outs stand apart in the source and are kept apart here.

Legend:
[1] = test system: HCT116 colon cancer cells engineered to over-express AKR1C3; experiment: Anti-proliferative IC50 assay (SRB), HCT116 over-expressing AKR1C3; assay type: cell-based, human; conditions: for IC50 Ratio WT:AKR1C3: HCT116-WT vs HCT116-AKR1C3
Source text: (§1) The cellular cytotoxicity of compounds of the invention resulting from AKR1C3-dependent metabolism of the compounds can readily be observed in anti-proliferative IC50 testing in isogenic cell lines that have been engineered to over-express human AKR1C3, relative to their wild-type counterparts that have been selected for their comparatively low levels of endogenous AKR1C3 expression (by Western blot analysis). The direct role of AKR1C3 in metabolism and cytotoxicity of the compounds is further supported for selected examples by repeat anti-proliferative experiments in the presence of a potent and selective small molecule inhibitor of AKR1C3, SN34037 (Flanagan et al., Bioorganic & Medicinal Chemistry (2014), 22(3), 967-977).
(§2) Four hundred cells were seeded in a volume of 100 μL in each well of a 96-well plate. The cells were left in a humidified incubator (37° C., 5% CO2) for 2 hours in order to enable attachment to the surface of the wells prior to compound addition. All compounds were prepared as stocks in DMSO and stored at −80° C. Frozen stocks of compounds were thawed immediately prior to addition to cells. Working solutions of each compound were made in α-MEM+5% FBS (v/v) at 3 times the required final concentration for the top well. The final concentration of DMSO in the α-MEM solution was ensured to not exceed 1% of the total volume. 50 μL of the working solution was added to the top wells (in duplicates) and gently mixed. The solubility of some compounds precluded the working solution in α-MEM to be 3 times the desired top well concentration. […] A 3-fold serial dilution was carried out along the plate starting from the top well. The first column of wells on the plate served as blanks (containing α-MEM+FBS) and the second column served as control wells (containing cells with no compound added). Following compound addition, the plates were incubated for 4 hours in a humidified incubator (37° C., 5% CO2).
(§3) Following the 4 hour compound exposure, the 96-well plates were washed three times by aspirating media with an Immuno Washer (Nunc) and each well replaced with 150 μL of α-MEM+5% (v/v) FBS+1% (v/v) P/S. The plates were left in a humidified incubator (37° C., 5% CO2) for 5 days to enable cell growth. The cells in 96-well plates were fixed 5 days after compound exposure by adding 50 μL of a 40% (w/v) trichloroacetic acid (TCA) solution so as to obtain a final TCA concentration of 10% in each well. The plates were left in the refrigerator (4° C.) for 1 hour and subsequently rinsed 3 times in tap water. Any excess water was left to drain and the cells were stained with 50 μL of 0.4% (w/v) sulforhodamine B (SRB). The plates with the SRB stain were left in the dark for 30 minutes. Excess stain was removed from the wells by rinsing the plates 4 times in water containing 1% (v/v) acetic acid. The stain was solubilised by adding 100 μL of 10 mM unbuffered Tris (pH 10.5) to each well and the plates were left in a shaker in a dark environment at room temperature for at least 1 hour. The absorbance values of the wells were determined by an ELx 808 Absorbance Microplate Reader (Bio-Tek Instruments, Winooski, Vt., USA), with the wavelength of the measurement filter set at 490 nm and a reference filter set at 450 nm. The absorbance of the reference filter was subtracted from the measurement filter to obtain a final absorbance of λ490-450 nm. The absorbance data was analysed and IC50 values determined by the KC4 microplate data analysis software (KC4™ V3.4, Bio-Tek).
(§4) Anti-proliferative IC50 assays were repeated as described above including the addition of 3 μM SN34037, a selective and potent small molecule inhibitor of AKR1C3.

[2] = test system: wild-type SNU398 hepatocellular carcinoma cells; experiment: Anti-proliferative IC50 assay, wild-type SNU398; assay type: cell-based
Experimental: as §2, §3, §4
(§5) Materials and methods used are as described for Example 9. […] This is a surprising finding and considerably greater than the approximately 77-fold, 270-fold and 400-fold increase in sensitivity observed for PR-104A, SN33540 and SN34454, respectively. In all cases, this increase in cytotoxicity resulting from expression of AKR1C3 can be substantially reversed by addition of an AKR1C3 inhibitor (SN34037), directly implicating metabolism of the prodrugs by AKR1C3 in the observed increase in cytotoxicity. As an important control, introduction of SN34037 had no anti-proliferative effects in wild-type SNU398 cells treated with compounds of the invention.

[3] = test system: wild-type HCT116 colon cancer cells; experiment: Anti-proliferative IC50 assay (SRB), wild-type HCT116; assay type: cell-based, human
Source text: as §1, §2, §3, §4

[4] = test system: wild-type H460 lung cancer cells; experiment: Anti-proliferative IC50 assay, wild-type H460; assay type: cell-based, human
Experimental: as §2, §3, §4
Materials and methods used are as described for Example 9.

[5] = test system: SNU398 hepatocellular carcinoma cells engineered to over-express AKR1C3; experiment: Anti-proliferative IC50 assay, SNU398 over-expressing AKR1C3; assay type: cell-based, human
Experimental: as §2, §3, §4, §5

recombinant human AKR1C3 = target: T1, recombinant human AKR1C3 (Homo sapiens, UniProt P42330); experiment: Kinetics assay: metabolism of prodrugs by recombinant human AKR1C3; assay type: biochemical; conditions: NADPH, pH 7.4, 37° C.
T1 construct: His6 (hexahistidine) (C); made in house; host or cells: E. coli BL21(DE3)
T1 sequence (P42330 1-323): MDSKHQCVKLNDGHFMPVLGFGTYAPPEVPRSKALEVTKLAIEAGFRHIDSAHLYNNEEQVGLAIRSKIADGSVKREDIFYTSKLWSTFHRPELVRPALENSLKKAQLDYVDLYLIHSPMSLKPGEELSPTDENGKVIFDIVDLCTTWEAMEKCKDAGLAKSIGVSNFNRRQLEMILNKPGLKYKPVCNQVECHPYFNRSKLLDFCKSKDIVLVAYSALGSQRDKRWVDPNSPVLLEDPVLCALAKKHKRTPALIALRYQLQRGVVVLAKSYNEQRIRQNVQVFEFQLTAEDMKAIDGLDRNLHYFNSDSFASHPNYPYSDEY
Experimental: E. coli BL21(DE3) cells expressing the pET22b-AKR1C3 construct with a C-terminal hexahistidine (His6) tag and constitutive promoter was generated. Colonies of these transformed E. coli cells were grown in LB agar medium containing 100 μg/mL of ampicillin. A single colony was picked the following day and grown in 400 mL batches of bacterial medium containing ampicillin (100 μg/mL) at 37° C., with continuous shaking at 200 rpm overnight. Bacterial cultures were pelleted by centrifugation (4000×g, 15 minutes) and resuspended in lysis buffer (10 mL/400 mL culture). The cells were disrupted by sonication (Sonicator 3000, Misonix) and centrifuged at 14,000 rpm for 30 minutes (at 4° C.). The cleared lysate was filtered in successive filters containing pore sizes of 1.20 μm, 0.8 μm and 0.2 μm and loaded onto a nickel-agarose affinity chromatography column on an ÄKTA Purifier system. The column was washed with 20 mL of the lysis buffer and the His6-tagged AKR1C3 protein was eluted with lysis buffer supplemented with 500 mM imidazole. The protein was further purified by a liquid chromatography gel filtration column (Superdex 200 HR16/60) using lysis buffer (supplemented with 5% v/v glycerol) and 1 mM DTT (pH 7.0) at a flow rate of 0.3 mL/min. Protein was monitored by absorbance at 280 nm, and purity of the fractions (1 mL) was assessed by SDS-PAGE. Active fractions containing the purified protein were pooled and concentrated by centrifugation (3,000×g, 4° C.) on a Vivaspin concentrator (MWCO 10,000 cutoff; GE Healthcare). The protein containing solution was supplemented with glycerol (to a final concentration of 15%, v/v) and NADP^+ was added to a final concentration of 2 mM.
Kinetic parameters of compounds of the invention were determined in a 96-well plate format. The 100 mM potassium phosphate buffer used in this assay was made with the following reagents to a pH of 7.4: • 0.5 M K2HPO4— 8.2 mL • 0.5 M KH2PO4— 1.8 mL • BSApowder—25 mg • Milli Q water—40 mL
For the assay, 2 μL of varying substrate concentrations were incubated with 94 μL of the potassium phosphate buffer and 2 μL of 5 mM NADPH for 5 minutes in the pre-warmed (37° C.) plate chamber of a Molecular Devices SpectraMax M2 plate reader. Purified AKR1C3 enzyme (2 μL) was added to a final concentration of […] in each well using an Eppendorf electronic multi-channel pipette. Absorbance measurements were recorded immediately upon addition of enzyme over a period of 5 minutes at a wavelength of 400 nm. Absorbance changes for each compound concentration were plotted against time to obtain the rate of absorbance change over the 5 minute period. The rate of absorbance change was then plotted against the compound concentration and non-linear regression analysis and Michaelis-Menten curve fitting performed on GraphPadPrism (version 5.00 for Windows, GraphPad Software, San Diego Calif. USA) in order to determine kinetic parameters of compounds.

[6] = Homo sapiens, HCT-116, 4 hour exposure, 5 days growth, read-out: HCT116-AKR1C3 IC50
[7] = with 3 μM SN34037, read-out: HCT116-AKR1C3 + AKR1C3 Inhibitor IC50
[8] = Homo sapiens, SNU-398; read-out: SNU398-WT Anti-proliferative IC50
[9] = Homo sapiens, SNU-398; with 3 μM SN34037; read-out: SNU398-WT +AKR1C3 Inhibitor Anti-proliferative IC50
[10] = Homo sapiens, HCT-116, 4 hour exposure, 5 days growth, read-out: HCT116-WT IC50
[11] = with 3 μM SN34037, read-out: HCT116-WT + AKR1C3 Inhibitor IC50
[12] = Homo sapiens, NCI-H460; read-out: H460-WT Anti-proliferative IC50
[13] = Homo sapiens, NCI-H460; with 3 μM SN34037; read-out: H460-WT +AKR1C3 Inhibitor Anti-proliferative IC50
[14] = Homo sapiens, SNU-398; read-out: SNU398-AKR1C3 Anti-proliferative IC50
[15] = Homo sapiens, SNU-398; with 3 μM SN34037; read-out: SNU398-AKR1C3 +AKR1C3 Inhibitor Anti-proliferative IC50
[16] = Homo sapiens, HCT-116, read-out: HCT116-AKR1C3 IC50
[17] = Homo sapiens, HCT-116, read-out: HCT116-WT IC50

Row | SMILES | IC50 Ratio WT:AKR1C3 [1] | IC50 [1, 6] [µM] | IC50 [1, 7] [µM] | IC50 [2, 8] [µM] | IC50 [2, 9] [µM] | IC50 [3, 10] [µM] | IC50 [3, 11] [µM] | IC50 [4, 12] [µM] | IC50 [4, 13] [µM] | IC50 [5, 14] [µM] | IC50 [5, 15] [µM] | IC50 [1, 16] [µM] | IC50 [3, 17] [µM] | Km (recombinant human AKR1C3) [µM] | kcat (recombinant human AKR1C3) [s⁻¹] | also measured
1 | CS(=O)(=O)OCCN(CCOS(C)(=O)=O)c1ccc([N+](=O)[O-])cc1S(=O)(=O)N1CCNCC1 [Compound 640, ((4-nitro-2-(piperazin-1-ylsulfonyl)phenyl)azanediyl)bis(ethane-2,1-diyl) dimethanesulfonate] | 469 | 0.009 | 2.06 | 8.47 | 8.49 | 4.22 | 4.1 | 0.027 | 5.88 | 0.026 | 6.54 |  |  |  |  | 
2 | CCN1CCN(S(=O)(=O)c2cc([N+](=O)[O-])ccc2N(CCOS(C)(=O)=O)CCOS(C)(=O)=O)CC1 [Compound 642, ((2-((4-ethylpiperazin-1-yl)sulfonyl)-4-nitrophenyl)azanediyl)bis(ethane-2,1-diyl) dimethanesulfonate] | 1930 |  |  |  |  |  |  |  |  |  |  | 0.001 | 1.93 |  |  | IC50 ([1]; read-out: HCT116-AKR1C3 + AKR1C3 Inhibitor IC50, with 3 μM SN34037): 0.828 µM; IC50 ([2]; Homo sapiens, SNU-398, read-out: SNU398-WT +AKR1C3 Inhibitor Anti-proliferative IC50): 12.1 µM; IC50 ([2]; Homo sapiens, SNU-398, read-out: SNU398-WT Anti-proliferative IC50): 10.3 µM; IC50 ([3]; read-out: HCT116-WT + AKR1C3 Inhibitor IC50, with 3 μM SN34037): 2.37 µM; IC50 ([4]; Homo sapiens, NCI-H460, read-out: H460-WT +AKR1C3 Inhibitor Anti-proliferative IC50): 2.24 µM; IC50 ([4]; Homo sapiens, NCI-H460, read-out: H460-WT Anti-proliferative IC50): 0.001 µM; IC50 ([5]; Homo sapiens, SNU-398, read-out: SNU398-AKR1C3 +AKR1C3 Inhibitor Anti-proliferative IC50): 1.28 µM; IC50 ([5]; Homo sapiens, SNU-398, read-out: SNU398-AKR1C3 Anti-proliferative IC50): 0.002 µM
3 | CS(=O)(=O)OCCN(CCOS(C)(=O)=O)c1ccc([N+](=O)[O-])cc1S(=O)(=O)N1CCN(CC(O)CO)CC1 (stereo not drawn) [Compound 644, ((2-((4-(2,3-dihydroxypropyl)piperazin-1-yl)sulfonyl)-4-nitrophenyl)azanediyl)bis(ethane-2,1-diyl) dimethanesulfonate] | 978 | 0.109 | 47 | 73.8 | 68.4 | 107 | 112 | 0.387 | 88.3 | 0.262 | 63.7 |  |  |  |  | 
4 | O=C(c1cc([N+](=O)[O-])cc([N+](=O)[O-])c1N(CCBr)CCBr)N1CCc2ccccc2C1 [SN34947, reference compound] | 28 |  |  |  |  |  |  |  |  |  |  | 2.41 | 66.8 | 7.8 | 23.8 | 
5 | N#Cc1cccc2c1CCN(C(=O)c1cc([N+](=O)[O-])cc([N+](=O)[O-])c1N(CCBr)CCBr)C2 [SN34951, reference compound] | >38 |  |  |  |  |  |  |  |  |  |  | 3.97 | > 150 | 8.5 | 29.0 | 
6 | CS(=O)(=O)OCCN(CCBr)c1c(C(=O)N2CCN(c3ccccc3)CC2)cc([N+](=O)[O-])cc1[N+](=O)[O-] [SN35028, reference compound] | >36 |  |  |  |  |  |  |  |  |  |  | 4.15 | > 150 | 7.3 | 29.1 | 
